Read-outs that look alike come from different tables or passages of the source. Where a SMILES comes first, the peptide text is derived from it. Bridges are numbered along the chain shown (N, C = ends).
How the values were obtained:
[1] = tested on: intestinal absorption of a phosphate meal from the gastrointestinal tract; experiment: Acute phosphate tracer uptake to plasma after intragastric co-administration of phosphate test meal and compound (Example 5); assay type: in vivo, rat; settings: rats, 15 min after intragastric co-administration
Protocol: (§1) Compounds were tested for the ability to reduce the appearance of circulating radiolabeled phosphate subsequent to administration to the alimentary canal in rats. The rate of radiolabeled phosphate tracer accumulation in the blood of rats was taken as a surrogate for the intestinal absorption rate of a phosphate meal from the gastrointestinal tract. To this end, circulating radiolabeled phosphate was monitored after intragastric co-administration to rats of a phosphate tracer meal along with example compounds. However, since some of the compounds tested potentially had properties that may hinder this assay, such as having putative gastrointestinal motility effects (e.g., delaying gastric emptying) or being purposefully chemically unstable in the gastrointestinal tract, direct intraduodenal administrations of the phosphate tracer bolus was also performed at times.
Male Sprague-Dawley rats that were 8-weeks of age were purchased from Charles River Laboratories (Hollister, Calif.). To enable blood sampling, rats were purchased with catheters surgically implanted in the jugular vein by the vendor. For studies requiring intraduodenal administration, an additional catheter was surgically implanted by the vendor to allow for direct infusion to the lumen of the duodenum. Rats were fed a normal, grain-based chow (Harlan Teklad, Madison, Wis.; 2018 Teklad Global 18% Protein Rodent Diet) containing 0.65% P, 1% Ca, and 1.5 iu/g Vitamin D3 and given water ad libitum leading up to the study.
Following an overnight fast, rats were administered a phosphate solution containing [^33P]orthophosphate (PerkinElmer, Waltham, Mass.) as a tracer with or without test articles dispersed in the solution at the indicated dosage. This dosing solution typically contained 8 mM monobasic sodium phosphate (1.25 μCi [^33P]orthophosphate/μmol), 4 mM calcium chloride, 0.4% hydroxypropyl methocellulose (w/v), and 2% dimethylsulfoxide (w/v). The dosing solutions were prepared in water for intragastric gavage at 10 ml/kg and in saline if administered intraduodenally using a previously implanted catheter at 5 ml/kg as a bolus.
(§2) Blood was sampled from the jugular vein via implanted catheters from conscious rats following dosing and the radioisotope associated with the resulting plasma was determined by scintillation counting. The relative amount of phosphate uptake from the administered dose to the plasma was assessed using body weight estimation of total circulating plasma. See Bijsterbosch et al., Experientia. 37: 381-382, 1981 (The plasma volume of the Wistar rat in relation to the body weight). The comparative amount of phosphate uptake at 15 min post-dose for each group (n=6) was expressed as a percentage relative to the study vehicle group (n=6) as mean±SEM. Statistical comparisons of the means of each test group compared to the mean of the vehicle group were determined by one-way analysis of variance followed by the Dunnett's posthoc test and P<0.05 was accepted as statistically significant (ns, not significant; *, P<0.05; **, P<0.01; and ***, P <0.001).

[2] = tested on: intestinal absorption of a phosphate meal from the gastrointestinal tract; experiment: Acute phosphate tracer uptake to plasma after intraduodenal co-administration of phosphate test meal and compound (Example 5); assay type: in vivo, rat; settings: rats, 15 min after intraduodenal co-administration
Protocol: as §1
Male Sprague-Dawley rats that were 8-weeks of age were purchased from Charles River Laboratories (Hollister, Calif.). To enable blood sampling, rats were purchased with catheters surgically implanted in the jugular vein by the vendor. For studies requiring intraduodenal administration, an additional catheter was surgically implanted by the vendor to allow for direct infusion to the lumen of the duodenum. […]
as §2, with “See Bijsterbosch et al., Experientia. 37: 381-382, 1981 (The plasma volume of the Wistar rat in relation to the body weight).” left out

P2Y2 receptor = P2Y2 receptor (Homo sapiens, UniProt P41231); settings: cited from earlier work; for EC50: agonist potency
[3] = tested on: phosphate absorption/uptake in the small intestine; experiment: 33P uptake to plasma in rats simultaneously dosed with 33P and test compound (Examples 2-4); assay type: in vivo, rat; settings: for uptake of phosphate in the gastrointestinal tract of rats: figure legends FIGS. 1-3
Protocol: Experiments were performed to determine whether guanylate cyclase C (GC-C) receptor agonists can decrease phosphate absorption/uptake in the small intestine as measured by ^33P uptake. Rats were simultaneously dosed with ^33P and linaclotide as shown below:
Blood was collected at 5, 15, 30, 45, and 60 minutes post-^33P administration and plasma scintillation counting was performed.
Experiments were performed to determine whether other classes of drugs can decrease phosphate absorption/uptake in the small intestine as measured by ^33P uptake. Rats were simultaneously dosed with ^33P and either an imidazoline subtype 1 (I1) receptor agonist (moxonidine) or an adenylate cyclase agonist (the water-soluble forskolin analog NKH477) as shown below:
Experiments were performed to determine whether increasing intracellular calcium (Ca^++) by different mechanisms can also decrease phosphate absorption in the small intestine as measured by ^33P uptake. Rats were simultaneously dosed with ^33P and test compounds as shown below: […]

[4] = Rattus norvegicus, po, 0.25 h, dose 10 mg/kg, read-out: Uptake of phosphate tracer to plasma, % of study vehicle

Chain of P2Y2 receptor (P41231 whole entry): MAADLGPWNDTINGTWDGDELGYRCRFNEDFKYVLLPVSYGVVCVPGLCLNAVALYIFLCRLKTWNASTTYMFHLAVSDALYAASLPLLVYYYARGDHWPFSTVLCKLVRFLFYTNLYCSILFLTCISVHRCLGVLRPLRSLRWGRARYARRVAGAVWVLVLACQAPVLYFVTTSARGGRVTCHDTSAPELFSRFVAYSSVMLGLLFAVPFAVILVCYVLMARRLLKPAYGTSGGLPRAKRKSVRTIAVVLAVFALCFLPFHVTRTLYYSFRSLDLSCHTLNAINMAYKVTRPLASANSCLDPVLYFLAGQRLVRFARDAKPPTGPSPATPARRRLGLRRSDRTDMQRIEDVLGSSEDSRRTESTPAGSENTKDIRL

With 6-guanyl NECA the “Uptake of phosphate tracer to plasma, % of study vehicle” value (“Uptake … % of study vehicle” for short) ([1]; dose 10 mg/kg) was >75%.

With `CSc1nc(N)c2ncn([C@@H]3O[C@H](COP(=O)(O)OP(=O)(O)O)[C@@H](O)[C@H]3O)c2n1` [2-methylthio-ADP] the “Uptake … % of study vehicle” value ([2]; dose 10 mg/kg) was >75%.

For `N[C@@H]1[C@H](O)[C@@H](COP(=O)(O)OP(=O)(O)OP(=O)(O)O)O[C@H]1n1ccc(=O)[nH]c1=S` [2′-amino-2-thio-UTP], the “selectivity, P2Y2-selective versus P2Y4” value (P2Y2 receptor; P2Y2 versus P2Y4) is listed as 300 fold and the EC50 (P2Y2 receptor) is listed as 8 nM.

For `O=c1[nH]c(=O)n([C@@H]2O[C@H](COP(=O)(O)OP(=O)(O)OP(=O)(O)O)[C@@H](O)[C@H]2O)cc1I` [5-iodo-UTP], the EC50 (P2Y2 receptor) is listed as 830 nM.

For `CCCCC(C)(C)[C@H](O)/C=C/[C@H]1[C@H](O)CC(=O)[C@@H]1C/C=C\CCCC(=O)O` [16,16-dimethyl-PGE2, 16,16-dimethyl PGE2], the “Uptake … % of study vehicle” value ([1]; dose 3 μg/kg) was >75%.

For `NC[C@@H]1O[C@H](c2ccccc2)Cc2c1ccc(O)c2O` [A68930], the “Uptake … % of study vehicle” value ([1]; dose 10 mg/kg) was 50-75%.

In the case of `CC[C@H](C)[C@@H]1NC(=O)[C@H](CCCNC(=N)N)NC(=O)[C@H](CC(=O)O)NC(=O)[C@H](CCSC)NC(=O)[C@H](CCCNC(=N)N)NC(=O)CNC(=O)CNC(=O)[C@H](Cc2ccccc2)NC(=O)[C@@H](NC(=O)[C@H](CO)NC(=O)[C@H](CO)NC(=O)[C@H](CCCNC(=N)N)NC(=O)[C@H](CCCNC(=N)N)NC(=O)[C@H](CC(C)C)NC(=O)[C@@H](N)CO)CSSC[C@@H](C(=O)N[C@@H](CC(N)=O)C(=O)N[C@@H](CO)C(=O)N[C@@H](Cc2ccccc2)C(=O)N[C@@H](CCCNC(=N)N)C(=O)N[C@@H](Cc2ccc(O)cc2)C(=O)O)NC(=O)CNC(=O)[C@H](CC(C)C)NC(=O)CNC(=O)[C@H](CO)NC(=O)[C@H](CCC(N)=O)NC(=O)[C@H](C)NC(=O)CNC1=O` [Atrial natriuretic peptide], the “Uptake … % of study vehicle” value ([2]; dose 0.2 mg/kg) is reported as >75%.

With `N#Cc1c(N)nc(SCC(N)=O)c(C#N)c1-c1ccc(OCC2CC2)cc1` [BAY 60-6583] the “Uptake … % of study vehicle” value ([1]; dose 10 mg/kg) was >75%.

With `Nc1nc(-c2nn(Cc3ccccc3F)c3ncccc23)ncc1C1CC1` [Bay 41-2271] the “Uptake … % of study vehicle” value ([1]; dose 10 mg/kg) was >75%.

In the case of `O=C(O)CCCCN(CCc1ccccc1OCc1ccc(CCc2ccccc2)cc1)Cc1ccc(C(=O)O)cc1` [Bay 58-2667], the “Uptake … % of study vehicle” value ([1]; dose 10 mg/kg) is reported as 50-75%.

For `CC(C[N+](C)(C)C)OC(N)=O` (stereo not drawn) [Bethanechol, carbamoyl-β-methlycholine], the response vs control in vivo at 10 mg/kg [1, 4] was > 75%.

`CCN[C@H]1C[C@H](C)S(=O)(=O)c2sc(S(N)(=O)=O)cc21` [Dorzolamide, dorzolamide] showed a response vs control in vivo at 20 mg/kg ([1]; Rattus norvegicus, po, 0.25 h, dose 20 mg/kg, read-out: Uptake of phosphate tracer to plasma, % of study vehicle) of 50 to 75%.

With `C[C@@H]1NC(=O)[C@@H]2CCCN2C(=O)[C@H](CC(N)=O)NC(=O)[C@@H]2CSSC[C@H](N)C(=O)N[C@H]3CSSC[C@H](NC1=O)C(=O)N[C@@H]([C@@H](C)O)C(=O)NCC(=O)N[C@H](C(=O)N[C@@H](Cc1ccc(O)cc1)C(=O)O)CSSC[C@H](NC(=O)[C@H](Cc1ccc(O)cc1)NC(=O)[C@H](CCC(=O)O)NC3=O)C(=O)N2` [Linaclotide] (H-CCEYCCNPACTGCY-OH; disulfide 1-6, 2-10, 5-13) the “uptake of phosphate in the gastrointestinal tract of rats” value (“uptake of phosphate … of rats” below) [3] was “reduces”, the “absorption of phosphate in the gastrointestinal tract (plasma 33P)” value ([3]; rats, both doses, 0.1 and 0.3 mg/kg, blood 5-60 min post-33P) was “decreased” and the “Uptake … % of study vehicle” value ([1]; dose 0.03 mg/kg) was 50-75%. For the same compound, the “Uptake … % of study vehicle” value ([1]; dose 0.1 mg/kg) was 50-75% and the “Uptake … % of study vehicle” value ([1]; dose 0.3 mg/kg) was 25-50%.

`COc1ccc2[nH]cc(CCNC(C)=O)c2c1` [Melatonin, N-acetyl-5-methoxytryptamine] showed a response vs control in vivo at 10 mg/kg [1, 4] of 50 to 75%.

With `COc1nc(C)nc(Cl)c1N=C1NCCN1` [Moxonidine, moxonidine] the “uptake of phosphate … of rats” value [3] was “reduce”, the response vs control in vivo at 2 mg/kg ([1]; Rattus norvegicus, po, 0.25 h, dose 2 mg/kg, read-out: Uptake of phosphate tracer to plasma, % of study vehicle) was 50 to 75% and the response vs control in vivo at 6 mg/kg ([1]; Rattus norvegicus, po, 0.25 h, dose 6 mg/kg, read-out: Uptake of phosphate tracer to plasma, % of study vehicle) was 25 to 50%.

With `O=c1[nH]c(=S)ccn1[C@@H]1O[C@H](COP(=O)(O)OP(=O)(O)C(F)(F)P(=O)(O)O)[C@@H](O)[C@H]1O` [PSB1114] the “Uptake … % of study vehicle” value ([2]; dose 15 mg/kg) was >75%.

In the case of `COCCCN1CCC(NC(=O)c2cc(Cl)c(N)c3c2OCC3)CC1` [Prucalopride, prucalopride], the response vs control in vivo at 10 mg/kg [1, 4] is reported as > 75%.

In the case of `C1COC(NC(C2CC2)C2CC2)=N1` [Rilmenidine, rilmenidine], the response vs control in vivo at 3 mg/kg ([1]; Rattus norvegicus, po, 0.25 h, dose 3 mg/kg, read-out: Uptake of phosphate tracer to plasma, % of study vehicle) is reported as > 75%.

For `O=c1ccn([C@@H]2O[C@H](COP(=O)(O)OP(=O)(O)OP(=O)(O)OP(=O)(O)OC[C@H]3O[C@@H](n4ccc(=O)[nH]c4=O)[C@H](O)[C@@H]3O)[C@@H](O)[C@H]2O)c(=O)[nH]1` [Up4U], the “uptake of phosphate … of rats” value [3] was “reduces”, the 33P uptake/absorption ([3]; rats, 15 mg/kg) was “significantly decreased” and the response vs control in vivo at 5 mg/kg ([1]; Rattus norvegicus, po, 0.25 h, dose 5 mg/kg, read-out: Uptake of phosphate tracer to plasma, % of study vehicle) was > 75%. For the same compound, the response vs control in vivo at 15 mg/kg ([1]; Rattus norvegicus, po, 0.25 h, dose 15 mg/kg, read-out: Uptake of phosphate tracer to plasma, % of study vehicle) was > 75% and the response vs control in vivo at 50 mg/kg ([1]; Rattus norvegicus, po, 0.25 h, dose 50 mg/kg, read-out: Uptake of phosphate tracer to plasma, % of study vehicle) was > 75%.

With `CCOC(=O)C1=C[C@]2(CC)CCCN3CCc4c(n1c1ccccc41)[C@@H]32` [Vinpocetine, vinpocetine] the response vs control in vivo at 1 mg/kg ([1]; Rattus norvegicus, po, 0.25 h, dose 1 mg/kg + 0.03 mg/kg Linacolitde, read-out: Uptake of phosphate tracer to plasma, % of study vehicle) was 50 to 75%, the response vs control in vivo at 1 mg/kg ([1]; Rattus norvegicus, po, 0.25 h, dose 1 mg/kg, read-out: Uptake of phosphate tracer to plasma, % of study vehicle) was > 75% and the response vs control in vivo at 10 mg/kg ([1]; Rattus norvegicus, po, 0.25 h, dose 10 mg/kg + 0.03 mg/kg Linacolitde, read-out: Uptake of phosphate tracer to plasma, % of study vehicle) was 25 to 50%. For the same compound, the response vs control in vivo at 10 mg/kg [1, 4] was > 75%.

Reference: patent US11813304B2, “Compounds and methods for inhibiting phosphate transport” (Ardelyx, Inc., priority 2013, dated 2023)
